In paper PMC4063695, “Design of Embedded-Hybrid Antimicrobial Peptides with Enhanced Cell Selectivity and Anti-Biofilm Activity” (PLoS ONE, 2014):
No end group written: not given here.

Key:
E. coli ATCC25922 [1] = assay: MIC after treatment with serum, enzymes and heat; type: cell-based, Escherichia coli
Excerpt: (§1) E. coli ATCC25922, P. aeruginosa ATCC27853, S. aureus ATCC29213, S. epidermidis ATCC12228, S. faecalis ATCC29212 and B. subtilis CMCC63501 were obtained from the College of Veterinary Medicine, Northeast Agricultural University (Harbin, China), E. coli K88, E. coli CVCC1515 and P. aeruginosa ATCC15442 were bestowed by Prof. J.H. Wang (Gene Engineering Laboratory, Feed Research Institute, Chinese Academy of Agricultural Sciences Beijing, China) and E. coli UB1005 was kindly provided by Prof. Q.S. Qi (State Key Laboratory of Microbial Technology, Shandong University, China). […] Briefly, 50 µl of approximate 0.5–1 × 10^6 colony forming units (CFU)/ml of cells were diluted in Mueller-Hinton broth and distributed to 96-well plate, 50 µl of twofold peptides were added and the plates was incubated at 37°C for 18–24 h. The MIC values were calculated as the lowest peptide concentration that prevented visible turbidity and negative control of the pure broth without microbes. The tests were performed at least three times in duplicate.
(§2) The stability of peptides was tested in the MIC assay in different environments, including salt sensitivity, human serum, thermal stability and susceptibility to enzymes. For salt sensitivity, 0.5–1 × 10^6 CFU/ml of P. aeruginosa ATCC27853 and E. coli ATCC25922 were treated with peptides, while different salts were added to MHB, and the final concentrations of physiological salts were as follows: 150 mM NaCl, 4.5 mM KCl, 1 mM MgCl2, 6 µM NH4Cl, 8 µM ZnCl2, 4 µM FeCl3 and […] [33]. Except salt sensitivity, only E. coli ATCC25922 was treated with peptides. […] For testing peptide sensitivity to the proteolytic enzymes, the peptides were incubated in advance at 37°C for 1 h with a 1 mg/ml final concentration of the proteolytic enzymes (trypsin, pepsin, papain and proteinase K). For testing thermal stability, incubation occurred at 100°C for 1 h. After these treatments, the procedures were same as MIC assay described above.

E. coli K88 = conditions: MHB, 37°C, 18-24 h, at least three times in duplicate
Excerpt: as §1

E. coli UB1005 = conditions: E. coli UB1005; MHB, 37°C, 18-24 h; at least three times in duplicate
Excerpt: as §1

S.aureus ATCC29213 = conditions: S.aureus ATCC29213; MHB, 37°C, 18-24 h; at least three times in duplicate
Excerpt: as §1

S. typhimurium ATCC14028 = conditions: S. typhimurium ATCC14028; MHB, 37°C, 18-24 h; at least three times in duplicate
Excerpt: as §1

P. aeruginosa ATCC27853 [2] = conditions: P. aeruginosa ATCC27853; MHB, 37°C, 18-24 h; at least three times in duplicate
Excerpt: as §1

B. subtilis CMCC63501 = conditions: B. subtilis CMCC63501; MHB, 37°C, 18-24 h; at least three times in duplicate
Excerpt: as §1

P. aeruginosa ATCC27853 [3] = assay: MIC in the presence of physiological salts; type: cell-based, Pseudomonas aeruginosa; parameters: unit not given here
Excerpt: as §1, §2

[4] = Circular dichroism, secondary structure; type: physicochemical; conditions: 150 µM peptide, 25°C, from [θ]222
Description: The CD spectra were measured with a CD spectropolarimeter (Jasco, J-820, Tokyo, Japan) at 25°C, using a 0.1 cm path length rectangular quartz cell. The spectra were recorded at between 190 and 250 nm at 10 nm/min scanning speed. At least three scans were conducted for each peptide sample.
The acquired CD spectra were converted to the mean residue ellipticity through the following equation: [drawing 1]
where θM is the mean residue ellipticity [deg.cm2.dmol-1], θobs is the observed ellipticity corrected for the buffer at a given wavelength [mdeg], c is the peptide concentration [mM], l is the path length [mm], and n is the number of amino acids.
The percentage of α-helical structure was calculated as followings: [drawing 2]
where [θ]222 is the experimentally observed mean residue ellipticity at 222 nm, and values for [θ]^0 and [θ]^100 which correspond to 0 and 100% a-helix content at 222 nm, are estimated to be −2000 and −32000, respectively, [29].

E. coli ATCC25922 [5] = assay: Kinetics of bacterial killing; type: cell-based, Escherichia coli; conditions: 1× MIC, within 30 min, 37°C, PBS; mean of three repeats
Description: Kinetics of the bacterial killing was measured by using E. coli ATCC25922 in logarithmic phase (10^8 CFU/mL). The above bacteria were diluted to 1/1000 with PBS, and 500 µL solutions was added with 500 µL PBS at different final concentrations (1/4, 1/2 and 1 × MIC). The solutions were incubated for 0.5 min, 1 min, 2.5 min, 5 min, 10 min, 20 min, and 40 min at 37°C. The moderately diluted samples were plated on nutrient agar plate (MHA). The bacterial colonies were counted after incubation for 18 h at 37°C. The results were determined and presented as the mean of three repeats.

Substance: RFRRLFRIRVRVLKKI-NH2 [R-FV-I16]
- MIC, Serum 25% (E. coli ATCC25922 [1]; E. coli ATCC25922, 25% human serum in MHB): 4
- MIC, Serum 50% (E. coli ATCC25922 [1]; E. coli ATCC25922, 50% human serum in MHB): 16
- MIC, Heat 100°C (E. coli ATCC25922 [1]; E. coli ATCC25922, peptide incubated at 100°C for 1 h): 1
- MIC, Enzymes Caroid (E. coli ATCC25922 [1]; E. coli ATCC25922, peptide pre-incubated 1 h at 37°C with 1 mg/ml enzyme (method names papain)): 8
- MIC, Enzymes Pepsin (E. coli ATCC25922 [1]; E. coli ATCC25922, peptide pre-incubated 1 h at 37°C with 1 mg/ml pepsin): 8
- MIC, Enzymes Proteinase K (E. coli ATCC25922 [1]; E. coli ATCC25922, peptide pre-incubated 1 h at 37°C with 1 mg/ml proteinase K): >128
- MIC, Enzymes Trypsin (E. coli ATCC25922 [1]; E. coli ATCC25922, peptide pre-incubated 1 h at 37°C with 1 mg/ml trypsin): 4
- antimicrobial activity after heat (in words) (E. coli ATCC25922 [1]; E. coli, incubation at 100°C for approximately 1 h): remained stable
- MIC (E. coli K88): 2 µM
- MIC (E. coli UB1005): 4 µM
- MIC (S.aureus ATCC29213): 2 µM
- MIC (S. typhimurium ATCC14028): 2 µM
- MIC (P. aeruginosa ATCC27853 [2]): 4 µM
- MIC (B. subtilis CMCC63501): 1 µM
- MIC, CaCl2 (P. aeruginosa ATCC27853 [3]; 2.5 µM CaCl2 in MHB): 4
- MIC, FeCl3 (P. aeruginosa ATCC27853 [3]; 4 µM FeCl3 in MHB): 4
- MIC, NH4Cl (P. aeruginosa ATCC27853 [3]; 6 µM NH4Cl in MHB): 4
- MIC, ZnCl2 (P. aeruginosa ATCC27853 [3]; 8 µM ZnCl2 in MHB): 4
- MIC, MgCl2 (P. aeruginosa ATCC27853 [3]; 1 mM MgCl2 in MHB): 8
- MIC, KCl (P. aeruginosa ATCC27853 [3]; 4.5 mM KCl in MHB): 4
- MIC, NaCl (P. aeruginosa ATCC27853 [3]; 150 mM NaCl in MHB): 4
- MIC, Mix (P. aeruginosa ATCC27853 [3]; all kinds of salts in physiological concentrations): 16
- MIC, Control (P. aeruginosa ATCC27853 [3]; no added salts, unit not given): 4
- α-helical content ([4]; 30 mM SDS): 36%
- α-helical content ([4]; 50% TFE): 69%
- reduction of colony count (E. coli ATCC25922 [5]): 99%
